Results taken from US8252846B2, “Strategies for delivery of active agents using micelles and particles” (priority 2005, dated 2012).

Legend:
[1] = Hydrolysis of polyketal copolymers in buffered water (1H NMR); format: physicochemical; conditions: buffer
Procedure: The molecular weight of the polyketal copolymers was determined by gel permeation chromatography (GPC) using a Shimadzu system (Kyoto, Japan) equipped with a UV detector. THF was used as the mobile phase at a flow rate of 1 mL/min. Polystyrene standards (Peak Mw=1060, 2970, and 10680) from Polymer Laboratories (Amherst, Mass.) were used to establish a molecular weight calibration curve. The hydrolysis of the polyketal copolymers was measured in buffered water at pH values of 1.0 (0.1M HCL), 4.5 (100 mM AcOH) and 7.4 (100 mM) at 37° C. Briefly, 20 mg of the polymer samples were placed in a 5 ml vial, 1 mL of buffer solution was added to each vial, and mixed with a magnetic stir bar. At specific time points, 1 mL of CDCl3 was added to each vial and shaken vigorously, the CDCl3 phase was isolated and analyzed by ^1H NMR, to determine the percent hydrolysis the of ketal linkages in polyketal copolymer.

[2] = cited from earlier work
serum nucleases = assay: Protection of ISS-DNA from serum nucleases (gel electrophoresis); format: in vitro ADME; conditions: 10% serum, 12 hours
Procedure: The stimuli responsive release of peptides from the PCMs due to the presence of GSH was investigated to determine if the PCMs will release peptide antigens after phagocytosis. The PCMs were incubated with different concentrations of GSH, for 24 hours in 50 mM pH 7.4 PBS buffer, and then analyzed by HPLC to determine the release of peptides. […] Incubation of the PCMs with 10 mM GSH (intracellular levels) induces the release of 71% of peptide, whereas incubation of the PCMs with just buffer causes the release of only 10% of peptides. B. GSH sensitive DNA release. The ability of the PCMs to protect encapsulated ISS-DNA from degradation by serum nucleases was investigated. PCMs were synthesized (as described above) and incubated with 10% serum for 12 hours, these PCMs were then examined by gel electrophoresis to determine the stability of the encapsulated ISS-DNA. As a control, ISS-DNA by itself was incubated with serum. […] C. […] A key advantage of the PCM strategy is that it generates a crosslinked delivery system. This crosslinking should stabilize the PCMs in vivo. The stability of the PCMs to decomposition was investigated by mixing the negatively charged polymer, poly(vinyl sulfate) (PVS) with the PCMs, this mixture was then analyzed by gel electrophoresis to determine the quantity of ISS-DNA displaced by the PVS. […]

Row | Compound | Estimated half life at pH 7.4 ([1]; pH 7.4) [days] | Half life at pH 4.5 [1] [days] | Log P of diol [2] | further results
1 | poly(cyclohexane-1,4-diyl acetone dimethylene ketal-co-1,5-pentane-acetone dimethylene ketal [PK3] | 39 |  |  | Hydrolysis half life at pH 7.4 (in words) ([1]; pH 7.4): several weeks
2 | poly(cyclohexane-1,4-diyl acetone dimethylene ketal-co-1,8-octane-acetone dimethylene ketal) [PK6] | 360 | 18.6 |  | 
3 | OCC1CCC(CO)CC1 (stereo not drawn) [1,4-cyclohexanedimethanol] |  |  | 1.46 | 
4 | poly(cyclohexane-1,4-diyl acetone dimethylene ketal-co-1,6-hexane-acetone dimethylene ketal) [PK5] | 53 | 4.4 |  | 
5 | OCCCCCCCCO [1,8-octanediol] |  |  | 1.75 | 
6 | 5-TCCATGACGTTCCTGACGTT-3 [ISS-DNA] |  |  |  | Stability of ISS-DNA to serum nucleases (serum nucleases): completely hydrolyzed
